Consider 19 molecules from patent US20230066011A1, “PYRROLOPYRIMIDINE DERIVATIVE, AND PHARMACEUTICAL COMPOSITION FOR PREVENTING OR TREATING PROTEIN KINASE-RELATED DISEASE COMPRISING SAME AS ACTIVE INGREDIENT” (VORONOI CO., LTD., priority 2019, published 2023).

Each structure is given as a SMILES string. Where only a bound is given, the exact number is not on record here.

What all share (format): biochemical
In experiment [1] the target is T1, human GST-DYRK1A (Homo sapiens, UniProt Q13627).
T1 construct: purified human GST-DYRK1A (full length, Thermo Scientifics) enzyme; purchased Thermo Scientifics
Briefly: GST-DYRK1A enzyme inhibition, ADP-Glo kinase assay. Conditions: ATP 10 μM, GST-DYRK1A full length, read-out: DYRK1 IC50. In a few lines: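 Full-length enzyme (10 ng) was incubated with 10 μM ATP and a specific substrate for 1 h at 25 °C in 40 mM Tris-HCl pH 7.4, 20 mM MgCl2, 0.5 mg/mL BSA, 50 μM DTT. Luminescence was read against a solvent control, and IC50 values were derived from 3 data sets.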
In general terms: ADP-Glo first removes unused ATP, then detects ADP through luciferase.

Experiment [2] has as its target T2, human GST-CLK1 (Homo sapiens, UniProt P49759).
T2 construct: purified human GST-CLK1 (129-end, SignalChem) enzyme; purchased SignalChem
Briefly: GST-CLK1 enzyme inhibition, ADP-Glo kinase assay. Conditions: ATP 10 μM, GST-CLK1 129-end. In a few lines: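 ADP-Glo luminescence read-out, relative to untreated solvent control, gave IC50 (nM) from triplicate data sets. Reactions ran an hour at 25° C with 3 ng GST-CLK1 (residues 129-end), 10 μM ATP and specific substrate in Tris-HCl pH 7.4 buffer with MgCl2, BSA and DTT.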

Experiment [3] concerns the target LRRK2 (Homo sapiens, UniProt Q5S007). Briefly: LRRK2 enzyme inhibition, ADP-Glo kinase assay. Further details: purchased Invitrogen PR8604B. Conditions: ATP 10 μM. How it is done:
To evaluate an inhibitory activity of the compound according to the present invention against LRRK2, LRRK2 (G2019S), DYRK1, CLK1, and TTK kinases, experiments were performed as follows.
Each of the Example compounds was reacted with a purified human LRRK2 (Invitrogen #PR8604B) enzyme to evaluate an ability to inhibit an enzyme using a method as described below. A composition of 40 mM Tris-HCl (pH 7.4), 20 mM MgCl2, 0.5 mg/mL BSA, and 50 μM DTT was used as a reaction buffer, and all reactions of test substances were performed in the reaction buffer. Each of the compounds was diluted […] from a 10 mM DMSO stock using a serial dilution method, and enzyme activities were measured at final compound concentrations of 50, 10, 2, 0.4, 0.08, 0.016, 0.0032, 0.00064, 0.000128, 0.0000256, 0.00000512, and 0.000001024 μM. In the test, purified ATP (10 μM) and an enzyme substrate (0.2 μg) were reacted with a human LRRK2 (25 ng) enzyme at 25° C. for 2 hours, and the enzyme activities were determined using an in vitro ADP-Glo™ kinase assay (Promega). An enzyme-activity reaction solution, an ADP-Glo reaction solution, and an enzyme-ability detection solution were reacted at a ratio of 2:2:1 to measure a degree of inhibition of the enzyme activity with luminescence. The degree of inhibition of the enzyme activity according to the treatment concentration of each of the compounds was calculated based on the fluorescence of the enzyme activity of the solvent control which was not treated with the compound. In this case, the concentration of each of the compounds inhibiting 50% of the enzyme activity was determined to be an IC50 (nM) value, and calculated using Prism (Version 5.01; GraphPad) software.

LRRK2, sequence (Q5S007 970-2527 limits assumed): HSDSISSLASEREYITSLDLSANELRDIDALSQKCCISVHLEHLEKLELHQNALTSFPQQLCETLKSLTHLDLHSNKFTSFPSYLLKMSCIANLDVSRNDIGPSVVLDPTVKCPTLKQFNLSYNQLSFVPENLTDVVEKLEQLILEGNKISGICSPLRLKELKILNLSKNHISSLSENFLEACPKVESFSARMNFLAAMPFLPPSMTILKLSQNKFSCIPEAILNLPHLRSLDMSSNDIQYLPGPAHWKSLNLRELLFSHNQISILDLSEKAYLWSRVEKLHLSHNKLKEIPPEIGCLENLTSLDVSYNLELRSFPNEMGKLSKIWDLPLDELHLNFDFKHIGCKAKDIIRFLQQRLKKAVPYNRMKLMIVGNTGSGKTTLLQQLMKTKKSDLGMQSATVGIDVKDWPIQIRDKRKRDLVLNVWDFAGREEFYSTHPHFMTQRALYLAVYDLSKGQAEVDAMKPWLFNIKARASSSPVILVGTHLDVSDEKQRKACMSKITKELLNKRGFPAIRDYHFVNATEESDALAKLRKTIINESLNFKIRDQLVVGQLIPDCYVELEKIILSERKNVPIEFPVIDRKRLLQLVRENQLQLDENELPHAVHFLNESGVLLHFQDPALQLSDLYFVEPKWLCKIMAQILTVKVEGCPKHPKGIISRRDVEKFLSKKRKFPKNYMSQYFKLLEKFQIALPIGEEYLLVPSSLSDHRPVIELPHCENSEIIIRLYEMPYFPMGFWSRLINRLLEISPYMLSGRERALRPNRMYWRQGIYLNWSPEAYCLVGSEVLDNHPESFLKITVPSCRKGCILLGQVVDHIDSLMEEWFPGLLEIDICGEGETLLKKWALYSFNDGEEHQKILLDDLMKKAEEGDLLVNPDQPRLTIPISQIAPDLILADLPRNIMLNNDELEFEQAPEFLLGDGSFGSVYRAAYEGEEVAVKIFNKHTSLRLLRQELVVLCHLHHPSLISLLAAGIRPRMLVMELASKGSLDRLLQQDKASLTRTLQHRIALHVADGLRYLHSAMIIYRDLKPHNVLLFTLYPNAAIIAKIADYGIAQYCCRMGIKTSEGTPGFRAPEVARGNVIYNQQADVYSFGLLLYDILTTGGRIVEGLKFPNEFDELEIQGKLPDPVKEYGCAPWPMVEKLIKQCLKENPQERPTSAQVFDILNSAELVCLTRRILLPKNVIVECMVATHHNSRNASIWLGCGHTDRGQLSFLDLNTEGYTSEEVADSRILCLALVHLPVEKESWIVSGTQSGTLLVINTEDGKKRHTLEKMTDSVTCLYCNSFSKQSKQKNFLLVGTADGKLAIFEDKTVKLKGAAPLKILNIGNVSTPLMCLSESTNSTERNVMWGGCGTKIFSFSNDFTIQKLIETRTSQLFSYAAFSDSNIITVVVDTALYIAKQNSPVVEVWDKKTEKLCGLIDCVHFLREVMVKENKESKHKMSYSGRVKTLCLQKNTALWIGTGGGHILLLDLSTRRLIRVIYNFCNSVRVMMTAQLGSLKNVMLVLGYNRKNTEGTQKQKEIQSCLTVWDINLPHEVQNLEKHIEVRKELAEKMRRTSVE
T2 sequence (P49759 129-484 limits assumed): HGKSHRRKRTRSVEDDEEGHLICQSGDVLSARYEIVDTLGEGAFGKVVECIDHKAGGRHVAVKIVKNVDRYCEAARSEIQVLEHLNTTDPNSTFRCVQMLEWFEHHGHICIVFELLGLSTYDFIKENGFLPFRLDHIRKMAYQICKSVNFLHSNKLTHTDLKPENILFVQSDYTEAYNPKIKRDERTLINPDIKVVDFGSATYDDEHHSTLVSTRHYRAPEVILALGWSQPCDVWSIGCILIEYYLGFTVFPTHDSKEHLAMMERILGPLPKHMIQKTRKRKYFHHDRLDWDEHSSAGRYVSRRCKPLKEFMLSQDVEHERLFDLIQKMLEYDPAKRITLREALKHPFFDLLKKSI

On to `CNc1nc(Nc2ccc(C(=O)N3CCC(N4CCOCC4)CC3)c3c2OCO3)nc2[nH]cc(C(F)(F)F)c12` [Example 215, (7-((4-(methylamino)-5-(trifluoromethyl)-7H-pyrrolo[2,3-d]pyrimidin-2-yl)amino)benzo[d][1,3]dioxol-4-yl)(4-morpholinopiperidin-1-yl)methanone], for which the values for the IC50 in experiment [1], in experiment [2] and in experiment [3] were 101 to 300 nM, 101 to 300 nM and less than 100 nM, respectively.

On to `O=C(c1ccc(Nc2nc(NC3CCCCC3)c3c(C(F)(F)F)c[nH]c3n2)c2c1OCCO2)N1CCOCC1` [Example 190, (8-((4-(cyclohexylamino)-5-(trifluoromethyl)-7H-pyrrolo[2,3-d]pyrimidin-2-yl)amino)-2,3-dihydrobenzo[b][1,4]dioxin-5-yl)(morpholino)methanone], for which the IC50 was 301 to 1000 nM in experiment [1], 301 to 1000 nM in experiment [2] and less than 100 nM in experiment [3].

In the case of `C=CCNc1nc(Nc2ccc(S(=O)(=O)N3CCOCC3)cc2OC)nc2[nH]cc(C(F)(F)F)c12` [Example 474, N^4-allyl-N^2-(2-methoxy-4-(morpholino-sulfonyl)phenyl)-5-(trifluoromethyl)-7H-pyrrolo[2,3-d]pyrimidine-2,4-diamine], the IC50 in experiment [1], in experiment [2] and in experiment [3] was 301 to 1000 nM throughout.

Take `CCNc1nc(Nc2ccc(P3(=O)CCN(CC)CC3)cc2OC)nc2[nH]cc(C#N)c12` [Example 260, 2-((4-(1-ethyl-4-oxido-1,4-azaphosphinan-4-yl)-2-methoxyphenyl)amino)-4-(ethylamino)-7H-pyrrolo[2,3-d]pyrimidine-5-carbonitrile]: the values for the IC50 in experiment [1], in experiment [2] and in experiment [3] were 101 to 300 nM, 101 to 300 nM and less than 100 nM, respectively.

In the case of `COc1cc(S(C)(=O)=O)ccc1Nc1nc(C2CC2)c2c(C#N)c[nH]c2n1` [Example 222, 4-cyclopropyl-2-((2-methoxy-4-(methylsulfonyl)phenyl)amino)-7H-pyrrolo[2,3-d]pyrimidine-5-carbonitrile], the IC50 in experiment [1] is 301 to 1000 nM; in experiment [2] it was 301 to 1000 nM; in experiment [3] it was less than 100 nM.

Turning to `COc1cc(P2(=O)CCN(C3CC3)CC2)ccc1Nc1nc(NC2CC2)c2c(C(F)(F)F)c[nH]c2n1` [Example 404, 1-cyclopropyl-4-(4-((4-(cyclo-propylamino) 5-(trifluoromethyl)-7H-pyrrolo[2,3-d]pyrimidin-2-yl)amino)3-methoxyphenyl)-1,4-azaphosphinane 4-oxide], the IC50 in experiment [1], in experiment [2] and in experiment [3] was less than 100 nM in each case.

For the molecule `COc1cc(S(=O)(=O)N2CCC(N3CCOCC3)CC2)ccc1Nc1nc(NCC2CCC2)c2c(C#N)c[nH]c2n1` [Example 94, 4-((cyclobutylmethyl)amino)-2-((2-methoxy-4-((4-morpholinopiperidin-1-yl)sulfonyl)phenyl)amino)-7H-pyrrolo[2,3-d]pyrimidine-5-carbonitrile], the figures for the concentration for half-maximal inhibition (IC50) in experiment [1], in experiment [2] and in experiment [3] were 301 to 1000 nM, 301 to 1000 nM and less than 100 nM, respectively.

Consider `CCCNc1nc(Nc2ccc(P3(=O)CCN(C4CC4)CC3)cc2OC)nc2[nH]cc(C(F)(F)F)c12` [Example 401, 1-cyclopropyl-4-(3-methoxy-4-((4-(propylamino)-5-(trifluoromethyl)-7H-pyrrolo[2,3-d]pyrimidin-2-yl)amino)phenyl)-1,4-azaphosphinane 4-oxide], for which the IC50 is 301 to 1000 nM in experiment [1], 101 to 300 nM in experiment [2] and less than 100 nM in experiment [3].

Consider `COCC(C)(C)Nc1nc(Nc2ccc(S(C)(=O)=O)cc2OC)nc2[nH]cc(C#N)c12` [Example 111, 4-((1-methoxy-2-methylpropan-2-yl)amino)-2-((2-methoxy-4-(methylsulfonyl)phenyl)amino)-7H-pyrrolo[2,3-d]pyrimdiine-5-carobnitrile], for which the results for the IC50 in experiment [1], in experiment [2] and in experiment [3] were 301 to 1000 nM, 301 to 1000 nM and less than 100 nM, respectively.

For the molecule `COc1cc(S(C)(=O)=O)ccc1Nc1nc(NC2CCOCC2)c2c(C#N)c[nH]c2n1` [Example 109, 2-((2-methoxy-4-(methylsulfonyl)phenyl)amino)-4-((tetrahydro-2H-pyran-4-yl)amino)-7H-pyrrolo[2,3-d]pyrimidine-5-carbonitrile], the results for the IC50 in experiment [1], in experiment [2] and in experiment [3] were 301 to 1000 nM, 301 to 1000 nM and less than 100 nM, respectively.

As for `CC(C)CNc1nc(Nc2ccc(C(=O)N3CCOCC3)c3c2OCCO3)nc2[nH]cc(C(F)(F)F)c12` [Example 169, (8-((4-(isobutylamino)-5-(trifluoromethyl)-7H-pyrrolo[2,3-d]pyrimidin-2-yl)amino)-2,3-dihydrobenzo[b][1,4]dioxin-5-yl)(morpholino)methanone], the IC50 in experiment [1] is 301 to 1000 nM; in experiment [2], 301 to 1000 nM; in experiment [3], less than 100 nM.

With `CCNc1nc(Nc2ccc(C(=O)N3C[C@@H]4C[C@H]3CO4)c3c2OCCO3)nc2[nH]cc(C(F)(F)F)c12` [Example 409], the IC50 in experiment [1], in experiment [2] and in experiment [3] was less than 100 nM each time.

As for `CC[C@@H](C)Nc1nc(Nc2ccc(S(C)(=O)=O)cc2OC)nc2[nH]cc(C(F)(F)F)c12` [Example 173, (R)-N^4-(sec-butyl)-N^2-(2-methoxy-4-(methyslulfonyl)phenyl)-5-(trifluoromethyl)-7H-pyrrolo[2,3-d]pyrimidine-2,4-diamine], the figures for the IC50 in experiment [1], in experiment [2] and in experiment [3] were 301 to 1000 nM, 301 to 1000 nM and less than 100 nM, respectively.

For `N#Cc1c[nH]c2nc(Nc3ccc(C(=O)N4CCOCC4)c4c3OCCO4)nc(NCC3CCC3)c12` [Example 132, 4-((cyclobutylmethyl)amino)-2-((8-(morpholine-4-carbonyl)-2,3-dihydrobenzo[b][1,4]dioxin-5-yl)amino)-7H-pyrrolo[2,3-d]pyrimidine-5-carbonitrile], the IC50 in experiment [1] was 301 to 1000 nM; in experiment [2] it was 301 to 1000 nM; in experiment [3] it was less than 100 nM.

Take `CC[C@H](C)Nc1nc(Nc2ccc(C(=O)N3CCC(N4CCOCC4)CC3)c3c2OCC3)nc2[nH]cc(C(F)(F)F)c12` [Example 452, (S)-(7-((4-(sec-butylamino)-5-(trifluoromethyl)-7H-pyrrolo[2,3-d]pyrimidin-2-yl)amino)-2,3-dihydrobenzo-furan-4-yl)(4-morpho-linopiperidin-1-yl)methanone]: the half-maximal inhibitory concentration (IC50) is 101 to 300 nM in experiment [1], less than 100 nM in experiment [2] and less than 100 nM in experiment [3].

On to `CCNc1nc(Nc2ccc(C(=O)N3CCOCC3)c3c2OCO3)nc2[nH]cc(C#N)c12` [Example 277, 4-(ethylamino)-2-((7-(morpholine-4-carbonyl)benzo[d][1,3]dioxol-4-yl)amino)-7H-pyrrolo[2,3-d]pyrimidine-5-carbonitrile], for which the figures for the IC50 in experiment [1], in experiment [2] and in experiment [3] were 301 to 1000 nM, 301 to 1000 nM and less than 100 nM, respectively.

As to `COCC(C)(C)Nc1nc(Nc2ccc(C(=O)N3CCOCC3)c3c2OCCO3)nc2[nH]cc(C#N)c12` [Example 131, 4-((1-methoxy-2-methylpropan-2-yl)amino)-2-((8-(morpholine-4-carbonyl)-2,3-dihydrobenzo[b][1,4]dioxin-5-yl)amino)-7H-pyrrolo[2,3-d]pyrimidine-5-carbonitrile], the results for the IC50 in experiment [1], in experiment [2] and in experiment [3] were 301 to 1000 nM, less than 100 nM and less than 100 nM, respectively.

Consider `CC(C)Nc1nc(Nc2ccc(C(=O)N3CCC(N4CCOCC4)CC3)c3c2OCCO3)nc2[nH]cc(C#N)c12` [Example 140, 4-(isopropylamino)-2-((8-(4-morpholinopiperidine-1-carbonyl)-2,3-dihydrobenzo[b][1,4]dioxin-5-yl)amino)-7H-pyrrolo[2,3-d]pyrimidine-5-carbonitrile], for which the IC50 in experiment [1] was 301 to 1000 nM; in experiment [2], less than 100 nM; in experiment [3], less than 100 nM.

Regarding `O=C(c1ccc(Nc2nc(NC3CCCCC3)c3c(C(F)(F)F)c[nH]c3n2)c2c1CCO2)N1CCC(N2CCOCC2)CC1` [Example 460, (7-((4-(cyclo-hexylamino)-5-(trifluoromethyl)-7H-pyrrolo[2,3-d]pyrimidin-2-yl)amino)-2,3-dihydrobenzo-furan-4-yl)(4-morpho-linopiperidin-1-yl)methanone], the IC50 was 301 to 1000 nM in experiment [1], 301 to 1000 nM in experiment [2] and less than 100 nM in experiment [3].

The IC50 is the concentration that gives 50% inhibition.
